Results on 23 molecules are retold here after patent US20080119515A1, “Heterocyclic Kinase Inhibitors: Methods of Use and Synthesis” (priority 2003, published 2008).

pIC50: −log10 of the molar value.

In this assay the target is T1, ZAP-70 (Homo sapiens, UniProt P43403).
T1 sequence (P43403 1-619): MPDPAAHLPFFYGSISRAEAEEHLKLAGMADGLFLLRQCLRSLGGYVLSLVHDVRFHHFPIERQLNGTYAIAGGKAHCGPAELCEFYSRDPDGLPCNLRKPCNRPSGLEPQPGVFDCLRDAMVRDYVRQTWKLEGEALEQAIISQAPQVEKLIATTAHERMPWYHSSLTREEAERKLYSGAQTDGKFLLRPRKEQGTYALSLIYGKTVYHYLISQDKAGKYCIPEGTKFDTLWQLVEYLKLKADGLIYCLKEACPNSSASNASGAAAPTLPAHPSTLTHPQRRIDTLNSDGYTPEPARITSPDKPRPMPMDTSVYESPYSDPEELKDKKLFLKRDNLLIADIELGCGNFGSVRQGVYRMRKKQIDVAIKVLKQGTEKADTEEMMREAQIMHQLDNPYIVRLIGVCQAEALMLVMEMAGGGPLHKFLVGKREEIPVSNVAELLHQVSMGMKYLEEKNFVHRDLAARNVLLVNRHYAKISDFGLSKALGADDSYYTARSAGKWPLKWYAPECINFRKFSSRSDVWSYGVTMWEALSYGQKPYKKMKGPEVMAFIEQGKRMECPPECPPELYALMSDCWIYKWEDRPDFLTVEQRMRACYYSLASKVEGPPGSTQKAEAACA
The assay can be described thus: DELFIA assay (ZAP-70 kinase, phosphorylation of biotinylated poly(glu,tyr)). It is filed as biochemical. Particulars: ZAP-70 DELFIA, class symbols; read-out: Activity (IC50 in vitro). The method in brief: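 3.1 nM ZAP-70 pre-incubated 10 min at room temperature with compound ([…]) and 62.5 nM biotinylated poly(glu,tyr) in 62.5 mM Mops pH 7.0, 12.5 mM MgCl2, 12.5% glycerol, 6.25% DMSO (pre-incubation concentrations); ATP added from 5 mM stock, 30 min reaction, EDTA stop. Phosphorylation read by DELFIA europium anti-phosphotyrosine fluorescence (340/615).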
As usually defined, the pIC50 is −log10 of the IC50, conventionally taken in molar units. With `N#Cc1cncc(-c2ccc3nc(NCc4ccc(C(F)(F)F)cc4)cc(C(=O)N4CCC[C@H]4CN4CCCC4)c3c2)c1` [Compound 339], the pIC50 is less than 5.00.
In the case of `Cn1ccnc1-c1ccc2nc(NCc3ccc(C(F)(F)F)cc3)cc(C(=O)N3CCC[C@H]3CN3CCCC3)c2c1` [Compound 340] it was less than 5.00.
Regarding `O=C(c1cc(NCc2ccc(C(F)(F)F)cc2)nc2ccc(-c3nc(Cl)ns3)cc12)N1CCC[C@H]1CN1CCCC1` [Compound 341], the pIC50 is less than 5.00.
In the case of `Cn1cncc1-c1ccc2nc(NCc3ccc(C(F)(F)F)cc3)cc(C(=O)N3CCC[C@H]3CN3CCCC3)c2c1` [Compound 342] it was less than 5.00.
In the case of `N#Cc1ncccc1-c1ccc2nc(NCc3ccc(C(F)(F)F)cc3)cc(C(=O)N3CCC[C@H]3CN3CCCC3)c2c1` [Compound 343] it was less than 5.00.
On to `O=C(c1cc(NCc2ccc(C(F)(F)F)cc2)nc2ccc(-c3ccc(F)c(F)c3)cc12)N1CCC[C@H]1CN1CCCC1` [Compound 344], for which the pIC50 is more than 6.00.
Take `O=C(c1cc(NCc2ccc(C(F)(F)F)cc2)nc2ccc(-c3ccc(C(F)(F)F)cc3)cc12)N1CCC[C@H]1CN1CCCC1` [Compound 345]: the pIC50 is less than 5.00.
In the case of `O=C(c1cc(NCc2ccc(C(F)(F)F)cc2)nc2ccc(-c3cccc(Cl)c3Cl)cc12)N1CCC[C@H]1CN1CCCC1` [Compound 346], the pIC50 was less than 5.00.
In the case of `O=C(c1cc(NCc2ccc(C(F)(F)F)cc2)nc2ccc(-c3ccccc3Cl)cc12)N1CCC[C@H]1CN1CCCC1` [Compound 347] it was less than 5.00.
`O=C(c1cc(NCc2ccc(C(F)(F)F)cc2)nc2ccc(-c3ccc4c(c3)OC(F)(F)O4)cc12)N1CCC[C@H]1CN1CCCC1` [Compound 348]: the pIC50 was more than 6.00.
Under `O=C(c1cc(NCc2ccc(C(F)(F)F)cc2)nc2ccc(-c3ccc4occc4c3)cc12)N1CCC[C@H]1CN1CCCC1` [Compound 349] stands more than 6.00; under `O=C(c1cc(NCc2ccc(C(F)(F)F)cc2)nc2ccc(-c3ccc(SC(F)(F)F)cc3)cc12)N1CCC[C@H]1CN1CCCC1` [Compound 350], less than 5.00; under `N#Cc1csc2ccc(-c3ccc4nc(NCc5ccc(C(F)(F)F)cc5)cc(C(=O)N5CCC[C@H]5CN5CCCC5)c4c3)cc12` [Compound 351], more than 6.00.
In the case of `O=C(c1cc(NCc2ccc(C(F)(F)F)cc2)nc2ccc(-c3ccc4ncsc4c3)cc12)N1CCC[C@H]1CN1CCCC1` [Compound 352] it was more than 6.00; in that of `Cc1c(-c2ccc3nc(NCc4ccc(C(F)(F)F)cc4)cc(C(=O)N4CCC[C@H]4CN4CCCC4)c3c2)sc2ccc(Cl)cc12` [Compound 353], less than 5.00; in that of `O=C(c1cc(NCc2ccc(C(F)(F)F)cc2)nc2ccc(-c3nc4ccccc4[nH]3)cc12)N1CCC[C@H]1CN1CCCC1` [Compound 354], less than 5.00.
Regarding `O=C(c1cc(NCc2ccc(C(F)(F)F)cc2)nc2ccc(-c3ccc(-c4cnco4)s3)cc12)N1CCC[C@H]1CN1CCCC1` [Compound 355], the pIC50 was less than 5.00.
For the molecule `O=C(c1cc(NCc2ccc(C(F)(F)F)cc2)nc2ccc(I)cc12)N1CCC[C@H]1CN1CCCC1` [Compound 356], the pIC50 is less than 5.00.
For the molecule `CNC[C@@H]1CCCN1C(=O)c1cc(NCc2ccc(C(F)(F)F)cc2)nc2ccc(-c3ccc4c(c3)OCO4)cc12` [Compound 357], the pIC50 was 5.00 to 6.00.
Under `O=C(c1cc(NCc2ccc(C(F)(F)F)cc2)nc2ccc(-c3ccc4c(c3)OCO4)cc12)N1CCC[C@H]1CNC1CCCC1` [Compound 358] stands more than 6.00.
Under `O=C(c1cc(NCc2ccc(C(F)(F)F)cc2)nc2ccc(-c3ccc4c(c3)OCO4)cc12)N1CCC[C@H]1CNC1CCC1` [Compound 359] stands more than 6.00; under `O=C(c1cc(NCc2ccc(C(F)(F)F)cc2)nc2ccc(-c3ccc4c(c3)OCO4)cc12)N1CCC[C@H]1CNC1CCCCC1` [Compound 360], 5.00 to 6.00; under `O=C(c1cc(NCc2ccc(C(F)(F)F)cc2)nc2ccc(-c3ccc4c(c3)OCO4)cc12)N1CCC[C@H]1CNC1CC1` [Compound 361], 5.00 to 6.00.
